Experimental data reported in patent US6593357B1, “Pyrazole compositions useful as inhibitors of ERK” (Vertex Pharmaceuticals Incorporated, priority 2000, dated 2003).

Columns and labels:
ERK2 = ERK2 (Homo sapiens, UniProt P28482); test: ERK2 inhibition, spectrophotometric coupled-enzyme assay; format: biochemical; settings: activated ERK2 10 nM, 65 μM ATP, 30° C., pH 7.5; read-out: ERK2 Inhibitory Activity (Ki class)
AKT = AKT inhibition, standard coupled enzyme assay; format: biochemical
Protocol: Compounds were screened for their ability to inhibit AKT using a standard coupled enzyme assay (Fox et al., Protein Sci., (1998) 7, 2249). Assays were carried out in a mixture of 100 mM HEPES 7.5, 10 mM MgCl2, 25 mM NaCl , 1 mM DTT and 1.5% DMSO. Final substrate concentrations in the assay were 170 μM ATP (Sigma Chemicals) and 200 μM peptide (RPRAATF, American Peptide, Sunnyvale, Calif.). Assays were carried out at 30° C. and 45 nM AKT. Final concentrations of the components of the coupled enzyme system were 2.5 mM phosphoenolpyruvate, 300 μM NADH, 30 μg/ML pyruvate kinase and 10 μg/ml lactate dehydrogenase.
An assay stock buffer solution was prepared containing all of the reagents listed above, with the exception of AKT, DTT, and the test compound of interest. 56 μl of the stock solution was placed in a 384 well plate followed by addition of 1 μl of 2 mM DMSO stock containing the test compound (final compound concentration 30 μM). The plate was preincubated for about 10 minutes at 30° C. and the reaction initiated by addition of 10 μl of enzyme (final concentration 45 nM) and 1 mM DTT. Rates of reaction were obtained using a BioRad Ultramark plate reader (Hercules, Calif.) over a 5 minute read time at 30° C.

Aurora2 = molecular target: T1, Aurora2 (Homo sapiens, UniProt O14965); test: Aurora inhibition, standard coupled enzyme assay; format: biochemical; settings: 40 μM ATP, 30° C.; read-out: Aurora2 Inhibitory Activity (IC50 class)
T1 sequence (O14965 1-403): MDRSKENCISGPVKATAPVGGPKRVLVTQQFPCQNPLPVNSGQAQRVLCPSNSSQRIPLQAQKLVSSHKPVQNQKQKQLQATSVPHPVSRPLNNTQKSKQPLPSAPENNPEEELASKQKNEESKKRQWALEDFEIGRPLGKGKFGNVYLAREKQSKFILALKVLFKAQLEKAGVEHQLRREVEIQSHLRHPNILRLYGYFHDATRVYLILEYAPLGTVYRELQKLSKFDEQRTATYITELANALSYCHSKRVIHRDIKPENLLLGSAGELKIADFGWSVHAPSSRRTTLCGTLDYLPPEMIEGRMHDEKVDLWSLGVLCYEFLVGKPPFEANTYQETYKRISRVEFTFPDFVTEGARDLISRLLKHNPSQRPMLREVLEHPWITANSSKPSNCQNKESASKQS
Protocol: Compounds were screened in the following manner for their ability to inhibit Aurora using a standard coupled enzyme assay. To an assay stock buffer solution containing 0.1M HEPES 7.5, 10 mM MgCl2, 25 mM NaCl, 2.5 mM phosphoenolpyruvate, 300 μM NADH, 30 μg/mL pyruvate kinase, 10 μg/mL lactate dehydrogenase, 40 μM ATP, and 800 μM peptide (LRRASLG, American Peptide, Sunnyvale, Calif.) was added a 30 μM solution of the compound in DMSO and the resulting mixture incubated at 30° C. for 10 min. The reaction was initiated by the addition of 10 μL of 70 nM Aurora and 1 mM DTT. The rates of reaction were obtained by monitoring absorbance at 340 nm over a 5 minute read time at 30° C. using a BioRad Ultramark plate reader (Hercules, Calif.). The IC50 was determined from the rate data as a function of inhibitor concentration.
The compound numbers correspond to the compound numbers in Table 1.

[1] = system: Colon cancer cells (HT-29 cell line); test: ERK inhibition cell proliferation assay (3H-thymidine uptake); format: cell-based; settings: Homo sapiens, 3 days
Protocol: Compounds were assayed for the inhibition of ERK2 by a cell proliferation assay. In this assay, a complete media was prepared by adding 10% fetal bovine serum and penicillin/streptomycin solution to RPMI 1640 medium (JRH Biosciences). Colon cancer cells (HT-29 cell line) were added to each of 84 wells of a 96 well plate at a seeding density of 10,000 cells/well/150 μL. The cells were allowed to attach to the plate by incubating at 37° C. for 2 hours. A solution of test compound was prepared in complete media by serial dilution to obtain the following concentrations: 20 μM, 6.7 μM, 2.2 μM, 0.74 μM, 0.25 μM, and 0.08 μM. The test compound solution (50 μL) was added to each of 72 cell-containing wells. To the 12 remaining cell-containing wells, only complete media […] was added to form a control group in order to measure maximal proliferation. To the remaining 12 empty wells, complete media was added to form a vehicle control group in order to measure background. The plates were incubated at 37° C. for 3 days. A stock solution of ^3H-thymidine (1 mCi/mL, New England Nuclear, Boston, Mass.) was diluted to 20 μCi/mL in RPMI medium then 20 μL of this solution was added to each well. The plates were further incubated at 37° C. for 8 hours then harvested and analyzed for ^3H-thymidine uptake using a liquid scintillation counter.

KDR = KDR (Homo sapiens, UniProt P35968); test: KDR inhibition, standard coupled enzyme assay; format: biochemical; settings: read-out: percent inhibition of KDR
Sequence of KDR (P35968 20-1356, species assumed): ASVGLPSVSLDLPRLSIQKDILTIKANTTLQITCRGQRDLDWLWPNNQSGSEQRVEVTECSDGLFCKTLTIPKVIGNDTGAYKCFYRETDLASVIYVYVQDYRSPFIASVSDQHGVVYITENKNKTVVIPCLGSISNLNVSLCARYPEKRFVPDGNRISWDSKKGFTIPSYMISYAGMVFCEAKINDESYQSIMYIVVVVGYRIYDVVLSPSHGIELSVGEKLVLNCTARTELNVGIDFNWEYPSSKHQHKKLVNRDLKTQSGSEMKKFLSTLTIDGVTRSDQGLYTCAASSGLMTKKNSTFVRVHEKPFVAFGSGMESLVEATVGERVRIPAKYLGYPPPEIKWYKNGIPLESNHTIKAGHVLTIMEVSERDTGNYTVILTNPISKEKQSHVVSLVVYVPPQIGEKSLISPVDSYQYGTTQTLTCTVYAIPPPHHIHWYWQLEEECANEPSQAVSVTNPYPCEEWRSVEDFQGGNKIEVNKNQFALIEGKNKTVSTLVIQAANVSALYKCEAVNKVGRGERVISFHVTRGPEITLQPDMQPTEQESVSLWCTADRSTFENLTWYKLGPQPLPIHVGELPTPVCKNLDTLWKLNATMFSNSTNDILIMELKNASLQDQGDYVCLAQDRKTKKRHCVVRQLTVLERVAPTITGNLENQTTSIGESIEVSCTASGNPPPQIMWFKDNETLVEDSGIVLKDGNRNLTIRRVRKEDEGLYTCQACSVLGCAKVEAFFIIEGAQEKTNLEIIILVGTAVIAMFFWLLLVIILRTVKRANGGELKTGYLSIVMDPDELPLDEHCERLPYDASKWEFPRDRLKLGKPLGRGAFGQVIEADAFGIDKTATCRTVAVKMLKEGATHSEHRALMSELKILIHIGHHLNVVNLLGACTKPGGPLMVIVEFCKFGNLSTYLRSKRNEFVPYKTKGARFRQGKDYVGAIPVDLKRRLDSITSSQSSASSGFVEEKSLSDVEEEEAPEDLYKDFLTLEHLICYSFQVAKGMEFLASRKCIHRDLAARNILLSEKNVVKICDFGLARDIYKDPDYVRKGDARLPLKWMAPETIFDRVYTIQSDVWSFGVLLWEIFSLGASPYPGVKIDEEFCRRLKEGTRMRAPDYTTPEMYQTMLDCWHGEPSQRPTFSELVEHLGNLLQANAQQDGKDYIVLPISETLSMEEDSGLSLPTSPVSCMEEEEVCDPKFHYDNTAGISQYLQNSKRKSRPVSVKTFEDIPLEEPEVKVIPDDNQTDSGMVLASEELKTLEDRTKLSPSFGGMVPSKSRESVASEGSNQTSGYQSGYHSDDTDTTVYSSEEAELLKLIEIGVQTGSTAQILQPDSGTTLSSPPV
Protocol: Compounds were screened for their ability to inhibit KDR using a standard coupled enzyme assay (Fox et al., Protein Sci., (1998) 7, 2249). Assays were carried out in a mixture of 200 mM HEPES 7.5, 10 mM MgCl2, 25 mM NaCl , 1 mM DTT and 1.5% DMSO. Final substrate concentrations in the assay were 300 μM ATP (Sigma Chemicals) and 10 μM poly E4Y (Sigma). Assays were carried out at 37° C. and 30 nM KDR. Final concentrations of the components of the coupled enzyme system were 2.5 mM phosphoenolpyruvate, 200 μM NADH, 30 μg/ML pyruvate kinase and 10 μg/ml lactate dehydrogenase.
An assay stock buffer solution was prepared containing all of the reagents listed above, with the exception of ATP and the test compound of interest. 177 μl of the stock solution was placed in a 96 well plate followed by addition of 3 μl of 2 mM DMSO stock containing the test compound (final compound concentration 30 μM). The plate was preincubated for about 10 minutes at 37° C. and the reaction initiated by addition of 20 μl of ATP (final concentration 300 μM). Rates of reaction were obtained using a Molecular Devices plate reader (Sunnyvale, Calif.) over a 5 minute read time at 37° C.

Sequence of ERK2 (P28482 whole entry): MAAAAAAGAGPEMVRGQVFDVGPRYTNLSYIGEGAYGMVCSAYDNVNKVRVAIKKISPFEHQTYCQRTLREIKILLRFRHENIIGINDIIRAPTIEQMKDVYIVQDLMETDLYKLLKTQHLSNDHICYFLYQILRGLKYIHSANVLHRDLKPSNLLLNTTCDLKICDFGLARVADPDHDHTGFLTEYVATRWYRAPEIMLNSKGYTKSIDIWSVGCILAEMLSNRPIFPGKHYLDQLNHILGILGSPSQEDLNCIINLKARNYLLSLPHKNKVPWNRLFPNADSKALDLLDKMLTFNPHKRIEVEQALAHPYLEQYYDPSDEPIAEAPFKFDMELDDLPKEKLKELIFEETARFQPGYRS

| Compound | Ki (ERK2) [µM] | inhibit AKT (AKT) | IC50 (Aurora2) [µM] | IC50 [1] [µM] | inhibition at 2 µM (KDR) [%] |
| --- | --- | --- | --- | --- | --- |
| NS(=O)(=O)c1ccc(CNC(=O)c2cc(-c3[nH]ncc3-c3cccc(Br)c3)c[nH]2)cc1 [II-94] | < 1 | inhibit AKT |  |  |  |
| O=C(NCc1cccnc1)c1cc(-c2[nH]ncc2-c2ccc(F)c(Cl)c2)c[nH]1 [II-101] | < 1 |  | < 5 |  |  |
| CCN(C)C(=O)c1cc(-c2[nH]ncc2-c2cc(Cl)cc(Cl)c2)c[nH]1 [II-66] | < 1 |  | 5 to 10 |  |  |
| O=C(NOCc1ccccc1)c1cc(-c2[nH]ncc2-c2cccc(F)c2)c[nH]1 [II-89] | < 1 | inhibit AKT | < 5 |  |  |
| O=C(NOCc1ccccc1)c1cc(-c2[nH]ncc2-c2ccc(Cl)cc2)c[nH]1 [II-99] | < 1 |  | < 5 |  |  |
| O=C(NCCc1cnc[nH]1)c1cc(-c2[nH]ncc2-c2cccc(Cl)c2)c[nH]1 [II-142] | 1 to 5 |  | < 5 |  |  |
| O=C(NCc1ccncc1)c1cc(-c2[nH]ncc2-c2cccc(Cl)c2F)c[nH]1 [II-115] | < 1 |  | < 5 |  |  |
| O=C(NOCc1ccccc1)c1cc(-c2[nH]ncc2-c2cccc(Cl)c2F)c[nH]1 [II-82] | < 1 |  | < 5 |  |  |
| O=C(NCc1ccncc1)c1cc(-c2n[nH]cc2-c2cc(Cl)cc(Cl)c2)c[nH]1 [II-48] | < 1 |  | < 5 | < 10 | > 40 |
| O=C(NOCc1ccccc1)c1cc(-c2[nH]ncc2-c2ccc(Cl)c(Cl)c2)c[nH]1 [II-54] | < 1 |  | 5 to 10 |  |  |
| O=C(NCc1cccnc1)c1cc(-c2[nH]ncc2-c2cc(Cl)cc(Cl)c2)c[nH]1 [II-76] | < 1 |  | < 5 |  |  |
| O=C(NOCc1ccccc1)c1cc(-c2[nH]ncc2-c2ccc(F)c(Cl)c2)c[nH]1 [II-77] | < 1 |  | < 5 |  |  |
| O=C(NCC1CCCO1)c1cc(-c2[nH]ncc2-c2cccc(Cl)c2F)c[nH]1 (stereo not drawn) [II-106] | < 1 |  | 5 to 10 |  |  |
| O=C(NCc1ccncc1)c1cc(-c2[nH]ncc2-c2ccc(F)c(Cl)c2)c[nH]1 [II-70] | < 1 |  | 5 to 10 |  |  |
| O=C(NC(CO)c1ccccc1)c1cc(-c2[nH]ncc2-c2cccc(Br)c2)c[nH]1 (stereo not drawn) [II-72] | < 1 |  | 5 to 10 |  |  |
| O=C(NOCc1ccccc1)c1cc(-c2[nH]ncc2-c2cc(F)ccc2F)c[nH]1 [II-113] | < 1 |  | < 5 |  |  |
| O=C(NCc1ccncc1)c1cc(-c2[nH]ncc2-c2ccc(F)c(F)c2)c[nH]1 [II-88] | < 1 |  | 5 to 10 |  |  |
| O=C(NCc1ccncc1)c1cc(-c2[nH]ncc2-c2ccc(Cl)c(Cl)c2)c[nH]1 [II-61] | < 1 |  | < 5 |  |  |
| CCN(C)C(=O)c1cc(-c2[nH]ncc2-c2cccc(Cl)c2F)c[nH]1 [II-81] | < 1 |  | < 5 |  |  |
| CCN(C)C(=O)c1cc(-c2[nH]ncc2-c2ccc(Cl)c(Cl)c2)c[nH]1 [II-64] | < 1 |  | < 5 |  |  |
| O=C(NC(CO)c1ccccc1)c1cc(-c2[nH]ncc2-c2cccc(Br)c2)c[nH]1 (stereo not drawn) [II-45] | < 1 |  |  | < 10 |  |
| O=C(NCc1ccc2c(c1)CCO2)c1cc(-c2[nH]ncc2-c2cccc(Br)c2)c[nH]1 [II-43] | < 1 |  |  | < 10 | > 40 |
| O=C(NOCc1ccccc1)c1cc(-c2[nH]ncc2-c2cc(Cl)cc(Cl)c2)c[nH]1 [II-51] | < 1 |  | 5 to 10 |  |  |
| O=C(NCc1ccncc1)c1cc(-c2[nH]ncc2-c2cccc(F)c2F)c[nH]1 [II-141] | 1 to 5 |  | < 5 |  |  |
| O=C(NCc1cccnc1)c1cc(-c2[nH]ncc2-c2cccc(Cl)c2F)c[nH]1 [II-114] | < 1 |  | < 5 |  |  |
